The values below come from US20230142789A1, “A SWEETENER OR SWEETNESS ENHANCER COMPOSITION” (ANALYTICON DISCOVERY GMBH, priority 2020, published 2023).

This assay is described as follows: Organoleptic test of the compounds against sucrose. Type of assay: in vivo. The arrangement: key: 3: sweeter than the control solution; 2: sweetness comparable with the control solution; 1: less sweet than the control solution but still sweet. The note with it: 0.4 mg/ml (400 ppm) in non-carbonated mineral water vs sucrose 20 g/l; panel of 3-4 panelists. Here is the method:
The isolated pure compound was dissolved in non-carbonated mineral water (“Evian”) in a concentration of 0.4 mg/ml (400 ppm). The sweet taste of each sample was compared by a panel of 3-4 panelists with a solution of sucrose in a concentration of 20 g/I.

For “11-Oxoisomogroside V [11-Isomogroside V]”, the Sweetness is listed as 3.

`C[C@H](CC[C@@H](O[C@@H]1O[C@H](CO[C@@H]2O[C@H](CO)[C@@H](O)[C@H](O)[C@H]2O)[C@@H](O)[C@H](O)[C@H]1O[C@@H]1O[C@H](CO)[C@@H](O)[C@H](O)[C@H]1O)C(C)(C)O)[C@H]1CC[C@@]2(C)[C@@H]3CC=C4C(CC[C@H](O[C@@H]5O[C@H](CO[C@@H]6O[C@H](CO[C@@H]7O[C@H](CO)[C@@H](O)[C@H](O)[C@H]7O)[C@@H](O)[C@H](O)[C@H]6O)[C@@H](O)[C@H](O)[C@H]5O)C4(C)C)[C@]3(C)[C@H](O)C[C@]12C` (some centres unmarked) [Mogroside Via] had a Sweetness of 3.
